{"source": "patent US20260250290A1", "about": "(BRISTOL-MYERS SQUIBB COMPANY, priority 2023, published 2026)", "data": [{"biological_target": "T1, full length SGK1 (Homo sapiens, UniProt O00141)", "T1 construct": "125 μM full length SGK1 (Life Technologies Part #PR7358A); purchased Life Technologies PR7358A", "T1 sequence (O00141 1-431)": "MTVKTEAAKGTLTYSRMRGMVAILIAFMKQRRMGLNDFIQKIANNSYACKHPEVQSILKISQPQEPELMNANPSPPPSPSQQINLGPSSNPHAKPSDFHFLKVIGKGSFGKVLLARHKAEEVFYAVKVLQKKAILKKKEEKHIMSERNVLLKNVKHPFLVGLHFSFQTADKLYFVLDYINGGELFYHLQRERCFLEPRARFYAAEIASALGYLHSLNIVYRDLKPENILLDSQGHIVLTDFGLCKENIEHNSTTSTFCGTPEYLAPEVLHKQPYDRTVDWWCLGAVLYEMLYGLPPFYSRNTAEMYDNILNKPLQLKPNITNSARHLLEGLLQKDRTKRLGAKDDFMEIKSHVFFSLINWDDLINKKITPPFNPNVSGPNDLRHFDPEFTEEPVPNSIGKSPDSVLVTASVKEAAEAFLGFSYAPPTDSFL", "assay": "SGK1 inhibition Assay A (Caliper LabChip electrophoretic separation of fluorescent peptide substrate and phosphorylated product)", "assay_type": "biochemical", "details": "Assay A; 20 μM ATP, 40 min incubation; read-out: SGK1 IC50", "units": {"IC50": "nM"}, "values": [{"smiles": "CC(=O)N1CC=C(c2cc(N3CCC[C@@H](NC(=O)c4cccc(OCC5CN(C)C5)n4)C3)c3c(N)ncnn23)C1", "note": "[Example 733, (R)-N-(1-(7-(1-acetyl-2,5-dihydro-1H-pyrrol-3-yl)-4-aminopyrrolo[2,1-f][1,2,4]triazin-5-yl)piperidin-3-yl)-6-((1-methylazetidin-3-yl)methoxy)picolinamide]", "IC50": 23}, {"smiles": "CC(=O)N1CC=C(c2cc(N3CCC[C@@H](NC(=O)c4cccc(OC5CN6CCC5CC6)n4)C3)c3c(N)ncnn23)C1", "note": "(stereo partly drawn) [Example 734, N-((R)-1-(7-(1-acetyl-2,5-dihydro-1H-pyrrol-3-yl)-4-aminopyrrolo[2,1-f][1,2,4]triazin-5-yl)piperidin-3-yl)-6-(quinuclidin-3-yloxy)picolinamide]", "IC50": 10}, {"smiles": "CC(=O)N1CC=C(c2cc(N3CCC[C@@H](NC(=O)c4cccc(N5CCN(C)CC5)c4)C3)c3c(N)ncnn23)C1", "note": "[Example 735, (R)-N-(1-(7-(1-acetyl-2,5-dihydro-1H-pyrrol-3-yl)-4-aminopyrrolo[2,1-f][1,2,4]triazin-5-yl)piperidin-3-yl)-3-(4-methylpiperazin-1-yl)benzamide]", "IC50": 21}, {"smiles": "CC(=O)N1CC=C(c2cc(N3CCC[C@@H](NC(=O)c4cncc(N5CCN(C)CC5)n4)C3)c3c(N)ncnn23)C1", "note": "[Example 736]", "IC50": 48}, {"smiles": "CC(=O)N1CC=C(c2cc(N3CCC[C@@H](NC(=O)c4ccn(C(F)F)n4)C3)c3c(N)ncnn23)C1", "note": "[Example 737]", "IC50": 10}, {"smiles": "CC(=O)N1CC=C(c2cc(N3CCC[C@@H](NC(=O)c4ccn(C)n4)C3)c3c(N)ncnn23)C1", "note": "[Example 738, (R)-N-(1-(7-(1-acetyl-2,5-dihydro-1H-pyrrol-3-yl)-4-aminopyrrolo[2,1-f][1,2,4]triazin-5-yl)piperidin-3-yl)-1-methyl-1H-pyrazole-3-carboxamide]", "IC50": 115}, {"smiles": "CC(=O)N1CC=C(c2cc(N3CCC[C@@H](NC(=O)c4cc(C5CC5)n(C)n4)C3)c3c(N)ncnn23)C1", "note": "[Example 739, (R)-N-(1-(7-(1-acetyl-2,5-dihydro-1H-pyrrol-3-yl)-4-aminopyrrolo[2,1-f][1,2,4]triazin-5-yl)piperidin-3-yl)-5-cyclopropyl-1-methyl-1H-pyrazole-3-carboxamide]", "IC50": 98}, {"smiles": "CC(=O)N1CC=C(c2cc(N3CCC[C@@H](NC(=O)c4ccncn4)C3)c3c(N)ncnn23)C1", "note": "[Example 740, (R)-N-(1-(7-(1-acetyl-2,5-dihydro-1H-pyrrol-3-yl)-4-aminopyrrolo[2,1-f][1,2,4]triazin-5-yl)piperidin-3-yl)pyrimidine-4-carboxamide]", "IC50": 241}, {"smiles": "CC(=O)N1CC=C(c2cc(N3CCC[C@@H](NC(=O)c4ccnc(N5CCN(C)CC5)n4)C3)c3c(N)ncnn23)C1", "note": "[Example 741]", "IC50": 3}, {"smiles": "CCn1ccc(C(=O)N[C@@H]2CCCN(c3cc(C4=CCN(C(C)=O)C4)n4ncnc(N)c34)C2)n1", "note": "[Example 742, (R)-N-(1-(7-(1-acetyl-2,5-dihydro-1H-pyrrol-3-yl)-4-aminopyrrolo[2,1-f][1,2,4]triazin-5-yl)piperidin-3-yl)-1-ethyl-1H-pyrazole-3-carboxamide]", "IC50": 135}, {"smiles": "CC(=O)N1CC=C(c2cc(N3CCC[C@@H](NC(=O)c4ccn(CC(F)F)n4)C3)c3c(N)ncnn23)C1", "note": "[Example 743]", "IC50": 51}, {"smiles": "CC(=O)N1CC=C(c2cc(N3CCC[C@@H](NC(=O)c4nc(N5CCN(C)CC5)ccc4F)C3)c3c(N)ncnn23)C1", "note": "[Example 744, (R)-N-(1-(7-(1-acetyl-2,5-dihydro-1H-pyrrol-3-yl)-4-aminopyrrolo[2,1-f][1,2,4]triazin-5-yl)piperidin-3-yl)-3-fluoro-6-(4-methylpiperazin-1-yl)picolinamide]", "IC50": 8}, {"smiles": "CC(=O)N1CC=C(c2cc(N3CCC[C@@H](NC(=O)c4nc(F)ccc4N4CCN(C)CC4)C3)c3c(N)ncnn23)C1", "note": "[Example 745, (R)-N-(1-(7-(1-acetyl-2,5-dihydro-1H-pyrrol-3-yl)-4-aminopyrrolo[2,1-f][1,2,4]triazin-5-yl)piperidin-3-yl)-6-fluoro-3-(4-methylpiperazin-1-yl)picolinamide]", "IC50": 366}, {"smiles": "CC(=O)N1CC=C(c2cc(N3CCC[C@@H](NC(=O)c4ccc5n(c4=O)CCC5)C3)c3c(N)ncnn23)C1", "note": "[Example 746, (R)-N-(1-(7-(1-acetyl-2,5-dihydro-1H-pyrrol-3-yl)-4-aminopyrrolo[2,1-f][1,2,4]triazin-5-yl)piperidin-3-yl)-5-oxo-1,2,3,5-tetrahydroindolizine-6-carboxamide]", "IC50": 784}, {"smiles": "CC(=O)N1CC=C(c2cc(N3CCC[C@@H](NC(=O)c4cc(C5CC5)[nH]n4)C3)c3c(N)ncnn23)C1", "note": "[Example 747]", "IC50": 13}, {"smiles": "CCOC1=C(C(=O)N[C@@H]2CCCN(c3cc(C4=CCN(C(C)=O)C4)n4ncnc(N)c34)C2)CN(CC(F)(F)C(F)(F)F)C1=O", "note": "[Example 748, (R)-N-(1-(7-(1-acetyl-2,5-dihydro-1H-pyrrol-3-yl)-4-aminopyrrolo[2,1-f][1,2,4]triazin-5-yl)piperidin-3-yl)~4-ethoxy-5-oxo-1-(2,2,3,3,3-pentafluoropropyl)-2,5-dihydro-1H-pyrrole-3-carboxamide]", "IC50": 318}, {"smiles": "CC(=O)N1CC=C(c2cc(N3CCC[C@@H](NC(=O)c4cccc(N5CCN(CC(F)F)CC5)n4)C3)c3c(N)ncnn23)C1", "note": "[Example 750, (R)-N-(1-(7-(1-acetyl-2,5-dihydro-1H-pyrrol-3-yl)-4-aminopyrrolo[2,1-f][1,2,4]triazin-5-yl)piperidin-3-yl)-6-(4-(2,2-difluoroethyl)piperazin-1-yl)picolinamide]", "IC50": 41}, {"smiles": "CC(=O)N1CC=C(c2cc(N3CCC[C@@H](NC(=O)c4cccc(OC5CCN(C(C)C)CC5)n4)C3)c3c(N)ncnn23)C1", "note": "[Example 751, (R)-N-(1-(7-(1-acetyl-2,5-dihydro-1H-pyrrol-3-yl)-4-aminopyrrolo[2,1-f][1,2,4]triazin-5-yl)piperidin-3-yl)-6-((1-isopropylpiperidin-4-yl)oxy)picolinamide]", "IC50": 37}, {"smiles": "CC(=O)N1CC=C(c2cc(N3CCC[C@@H](NC(=O)c4ccnc(N5CC6(C5)CN(C(C)C)C6)n4)C3)c3c(N)ncnn23)C1", "note": "[Example 752, (R)-N-(1-(7-(1-acetyl-2,5-dihydro-1H-pyrrol-3-yl)-4-aminopyrrolo[2,1-f][1,2,4]triazin-5-yl)piperidin-3-yl)-2-(6-isopropyl-2,6-diazaspiro[3.3]heptan-2-yl)pyrimidine-4-carboxamide]", "IC50": 79}, {"smiles": "CC(=O)N1CC=C(c2cc(N3CCC[C@@H](NC(=O)c4cccc(N[C@@H]5CCN(C)C5)n4)C3)c3c(N)ncnn23)C1", "note": "[Example 760, N—((R)-1-(7-(1-acetyl-2,5-dihydro-1H-pyrrol-3-yl)-4-aminopyrrolo[2,1-f][1,2,4]triazin-5-yl)piperidin-3-yl)-6-(((R)-1-methylpyrrolidin-3-yl)amino)picolinamide]", "IC50": 23}, {"smiles": "CC(=O)N1CC=C(c2cc(N3CCC[C@@H](NC(=O)c4cccc(NCCN(C)C)n4)C3)c3c(N)ncnn23)C1", "note": "[Example 761, (R)-N-(1-(7-(1-acetyl-2,5-dihydro-1H-pyrrol-3-yl)-4-aminopyrrolo[2,1-f][1,2,4]triazin-5-yl)piperidin-3-yl)-6-((2-(dimethylamino)ethyl)amino)picolinamide]", "IC50": 7}, {"smiles": "CC(=O)N1CC=C(c2cc(N3CCC[C@@H](NC(=O)c4cccc(NCCN5CCCC5)n4)C3)c3c(N)ncnn23)C1", "note": "[Example 763, (R)-N-(1-(7-(1-acetyl-2,5-dihydro-1H-pyrrol-3-yl)-4-aminopyrrolo[2,1-f][1,2,4]triazin-5-yl)piperidin-3-yl)-6-((2-(pyrrolidin-1-yl)ethyl)amino)picolinamide]", "IC50": 10}, {"smiles": "CC(=O)N1CC=C(c2cc(N3CCC[C@@H](NC(=O)c4cccc(N5CC(S(C)(=O)=O)C5)n4)C3)c3c(N)ncnn23)C1", "note": "[Example 764, (R)-N-(1-(7-(1-acetyl-2,5-dihydro-1H-pyrrol-3-yl)-4-aminopyrrolo[2,1-f][1,2,4]triazin-5-yl)piperidin-3-yl)-6-(3-(methylsulfonyl)azetidin-1-yl)picolinamide]", "IC50": 62}, {"smiles": "COCCNc1cccc(C(=O)N[C@@H]2CCCN(c3cc(C4=CCN(C(C)=O)C4)n4ncnc(N)c34)C2)n1", "note": "[Example 765, (R)-N-(1-(7-(1-acetyl-2,5-dihydro-1H-pyrrol-3-yl)-4-aminopyrrolo[2,1-f][1,2,4]triazin-5-yl)piperidin-3-yl)-6-((2-methoxyethyl)amino)picolinamide]", "IC50": 200}, {"smiles": "CC(=O)N1CC=C(c2cc(N3CCC[C@@H](NC(=O)c4cccc(NC5CN(C)C5)n4)C3)c3c(N)ncnn23)C1", "note": "[Example 766, (R)-N-(1-(7-(1-acetyl-2,5-dihydro-1H-pyrrol-3-yl)-4-aminopyrrolo[2,1-f][1,2,4]triazin-5-yl)piperidin-3-yl)-6-((1-methylazetidin-3-yl)amino)picolinamide]", "IC50": 679}, {"smiles": "CC(=O)N1CC=C(c2cc(N3CCC[C@@H](NC(=O)c4cccc(NCCS(C)(=O)=O)n4)C3)c3c(N)ncnn23)C1", "note": "[Example 767, (R)-N-(1-(7-(1-acetyl-2,5-dihydro-1H-pyrrol-3-yl)-4-aminopyrrolo[2,1-f][1,2,4]triazin-5-yl)piperidin-3-yl)-6-((2-(methylsulfonyl)ethyl)amino)picolinamide]", "IC50": 24}, {"smiles": "CC(=O)N1CC=C(c2cc(N3CCC[C@@H](NC(=O)c4cccc(NC5CC(=O)N(C)C5)n4)C3)c3c(N)ncnn23)C1", "note": "(stereo partly drawn) [Example 768, N-((R)-1-(7-(1-acetyl-2,5-dihydro-1H-pyrrol-3-yl)-4-aminopyrrolo[2,1-f][1,2,4]triazin-5-yl)piperidin-3-yl)-6-((1-methyl-5-oxopyrrolidin-3-yl)amino)picolinamide]", "IC50": 46}]}]}
